According to patent US5298523A, “Method for treating transplant patients using mycalamide compounds” (priority 1992, dated 1994):
Where two headings read alike, the source gives them in different places.

Legend:
[1] = Lymphocyte viability assay (LCV, MTT) on murine splenocytes; type: cell-based; conditions: mouse, splenocytes
Protocol: Preparation of splenocyte cell suspensions. […] The resulting supernatant was then transferred to another sterile centrifuge tube, and the cell concentration adjusted to 2×10^6 cells/ml dilution with TCM.
Determination of mycalamide A toxicity. The toxicity of mycalamide A on murine splenocytes and human PBL was determined using a colorimetric assay, based on the ability of viable cells to convert the colorless tetrazolium salt, 3-(4,5-dimethylthiazol-2yl)-2,5-diphenyl tetrazolium bromide (MTT) to a colored formazan product and trypan blue exclusion. For the colorimetric assay, a volume of 0.075 ml of an MTT solution (550 μg/ml of MTT in TCM) was added to test and control wells containing one of the populations of splenocytes or test wells and incubated for 5-6 hours following the initial incubation period. Microtiter plates were centrifuged at 100× g, supernatants carefully removed, and a volume of 0.20 ml of isopropyl alcohol was added to each well to dissolve the formazan crystals. The absorbance at 570 nm was determined for each well using an ELISA plate reader. […] As an additional parameter of toxicity, wells containing cultured lymphocytes with various dilutions of mycalamide A were examined with trypan blue, and the percentage of dye-excluding (viable) cells was determined.

murine CD4^+ T cells = experiment: Activation of CD4+ T cells by anti-CD3 mAb/mB7; type: cell-based, murine (BALB/c)
Protocol: (A) Costimulation of T cells with anti-CD3 mAb and mB7. […] (B) Costimulation of T cells with mB7 and PMA. […] All cultures were incubated for 48 hours and pulsed with 1 μCi [ ^3 H] thymidine/well for the last 6 hours of the incubation period to assay for T cell proliferation.
(§1) (A) Costimulation of T cells with anti-CD3 mAb and mB7. 2×10^5 purified BALB/c CD4^+ T lymphocytes were stimulated with the indicated concentrations of anti-CD3 mAb in the presence of medium (.largecircle.), 2×10^4 paraformaldehyde-fixed CHO-mB7 cells (.quadrature.), or 2×10^4 paraformaldehyde-fixed CHO-mB7 cells in the presence of 0.1 nM FK506 (.gradient.), 1 nM FK506 (Δ), or 10 nM FK506 ( ). (B) Costimulation of T cells with mB7 and PMA. 2×10^5 purified BALB/c CD4^+ T lymphocytes were stimulated with the indicated concentrations of PMA and either medium (.largecircle.), 2×10^4 paraformaldehyde-fixed CHO-mB7 cells (.quadrature.), or paraformaldehyde-fixed CHO-mB7 cells in the presence of 0.1 nM FK506 (.gradient.), 1 nM FK506 (Δ), or 10 nM FK506 ( ). All cultures were incubated for 48 hours and pulsed with 1 μCi [^3 H] thymidine/well for the last 6 hours of the incubation period to assay for T cell proliferation.
as §1, with “pM mycalamide A” for “nM FK506”
mB7-mediated activation of murine CD4^+ T cells. Mouse T cells were purified as follows: splenocytes were depleted of red blood cells by treatment with Tris-NH4 Cl. T cells were enriched by nylon wool fractionation. CD4^+ T cells from BALB/c mice were purified by two-fold treatment with a mixture of anti-MHC Class II and anti-CD8 monoclonal antibodies and rabbit complement. Chinese hamster ovary cells (CHO) and CHO cells transfected with the murine B7 molecule (CHOmB7) were fixed with 1% paraformaldehyde prior to addition to the cultures. Microcultures were set up in duplicate 96-well plates. […] All cultures were incubated for 48 hours and pulsed with 1 μCi ^3 H-thymidine/well for the last 6 hours of the incubation period to assay for T cell proliferation.

Question: Which results are given for `C=C1CC(OC)(C(O)C(=O)NC2OCOC3C2OC(CC(O)CO)C(C)(C)C3OC)OC(C)C1C` (stereo not shown) [Mycalamide A, mycalamide A]?
Answer: viability ([1]; MLR, 5.0 × 10^0 μg/ml, MTT, read-out: % Viability (LCV)): 0%; viability ([1]; MLR, 5.0 × 10^1 μg/ml, MTT, read-out: % Viability (LCV)): 0%; viability ([1]; MLR, 5.0 × 10^2 μg/ml, MTT, read-out: % Viability (LCV)): 0%; viability ([1]; MLR, 5.0 × 10^-1 μg/ml, MTT, read-out: % Viability (LCV)): 55%; viability ([1]; MLR, 5.0 × 10^-2 μg/ml, MTT, read-out: % Viability (LCV)): 79%; viability ([1]; MLR, 5.0 × 10^-3 μg/ml, MTT, read-out: % Viability (LCV)): 66%; viability ([1]; MLR, 5.0 × 10^-4 μg/ml, MTT, read-out: % Viability (LCV)): 62%; viability ([1]; MLR, 5.0 × 10^-5 μg/ml, MTT, read-out: % Viability (LCV)): 63%; viability ([1]; MLR, 5.0 × 10^-6 μg/ml, MTT, read-out: % Viability (LCV)): 83%; viability ([1]; MLR, 5.0 × 10^-7 μg/ml, MTT, read-out: % Viability (LCV)): 71%; viability ([1]; MLR, 5.0 × 10^-8 μg/ml, MTT, read-out: % Viability (LCV)): 100%; viability ([1]; MLR, 5.0 × 10^-9 μg/ml, MTT, read-out: % Viability (LCV)): > 99%; viability ([1]; MLR, 5.0 × 10^-10 μg/ml, MTT, read-out: % Viability (LCV)): > 99%; viability ([1]; MLR, 5.0 × 10^-11 μg/ml, MTT, read-out: % Viability (LCV)): > 99%; viability ([1]; MLR, 5.0 × 10^-12 μg/ml, MTT, read-out: % Viability (LCV)): > 99%; viability ([1]; MLR, 5.0 × 10^-13 μg/ml, MTT, read-out: % Viability (LCV)): > 99%; viability ([1]; MLR, 5.0 × 10^-14 μg/ml, MTT, read-out: % Viability (LCV)): > 99%; viability ([1]; MLR, 5.0 × 10^-15 μg/ml, MTT, read-out: % Viability (LCV)): > 99%; viability ([1]; MLR, 5.0 × 10^-16 μg/ml, MTT, read-out: % Viability (LCV)): > 99%; viability ([1]; MLR, 5.0 × 10^-17 μg/ml, MTT, read-out: % Viability (LCV)): > 99%; viability ([1]; MLR, 5.0 × 10^-18 μg/ml, MTT, read-out: % Viability (LCV)): > 99%; viability ([1]; MLR, 5.0 × 10^-19 μg/ml, MTT, read-out: % Viability (LCV)): > 99%; viability ([1]; mitogen study, 5.0 × 10^0 μg/ml, read-out: LCV, % viability): 1%; viability ([1]; mitogen study, 5.0 × 10^1 μg/ml, read-out: LCV, % viability): 2%; viability ([1]; mitogen study, 5.0 × 10^2 μg/ml, read-out: LCV, % viability): 3%; viability ([1]; mitogen study, 5.0 × 10^-1 μg/ml, read-out: LCV, % viability): 4%; viability ([1]; mitogen study, 5.0 × 10^-2 μg/ml, read-out: LCV, % viability): 3%; viability ([1]; mitogen study, 5.0 × 10^-3 μg/ml, read-out: LCV, % viability): 3%; viability ([1]; mitogen study, 5.0 × 10^-4 μg/ml, read-out: LCV, % viability): 4%; viability ([1]; mitogen study, 5.0 × 10^-5 μg/ml, read-out: LCV, % viability): 180%; effect on anti-CD3/mB7 activation of CD4+ cells (murine CD4^+ T cells; anti-CD3/mB7, in words): blocks activation; times more potent than FK506 (murine CD4^+ T cells; immunosuppressive activity vs FK506): 10 times; times more potent than cyclosporin A (murine CD4^+ T cells; immunosuppressive activity vs cyclosporin A): approximately 1000 times; suppressive activity compared with FK506 or CsA (murine CD4^+ T cells; in words): superior to FK506 or CsA
